Results as given in article PMC10616419 (The Journal of Biological Chemistry, 2023).
Where “and” joins values, the source holds several entries; their conditions need not be identical. Equal entries are not always repeated. Where two headings read alike, the source gives them in different places.

How the values were obtained:
TRPV1 [1] = conditions: cited from earlier work
[2] = biological target: T1, YYYA concatemer rat TRPV1 (single Y511A mutant binding site) (Rattus norvegicus, UniProt O35433, Y511A); type: cell-based
T1 construct: expressed in transfected cells; host or cells: TSA201 (HEK293T) cells, transient transfection; excised inside-out patches

[3] = biological target: T2, Y511A mutant subunit of rat TRPV1 (YYYA and YYAA concatemers) (Rattus norvegicus, UniProt O35433, Y511A); type: cell-based
T2 construct: expressed in transfected cells; host or cells: TSA201 (HEK293T) cells, transient transfection

[4] = biological target: T3, YYAA concatemer rat TRPV1 (two Y511A mutant subunits) (Rattus norvegicus, UniProt O35433, Y511A); type: cell-based
T3 construct: expressed in transfected cells; host or cells: TSA201 (HEK293T) cells, transient transfection; excised inside-out patches

Y512A mutant mouse TRPV1 [5] = biological target: T4, Y512A mutant mouse TRPV1 (Mus musculus, UniProt Q704Y3, Y512A); test: cell-based; type: cell-based
T4 construct: expressed in transfected cells; host or cells: TSA201 (HEK293T) cells, transient transfection

TRPV1 [6] = type: cell-based
wildtype mouse TRPV1 = biological target: T5, wildtype mouse TRPV1 (Mus musculus, UniProt Q704Y3); test: cell-based; type: cell-based
T5 construct: expressed in transfected cells; host or cells: TSA201 (HEK293T) cells, transient transfection

[7] = biological target: T1, YYYA concatemer rat TRPV1 (single Y511A mutant binding site); conditions: cited from earlier work
TRPV1 [8] = biological target: TRPV1 (Rattus norvegicus, UniProt O35433, Y511A); conditions: cited from earlier work
TRPV1 [9] = biological target: TRPV1 (Rattus norvegicus, UniProt O35433); conditions: cited from earlier work
[10] = biological target: T6, wildtype (Y) subunit of rat TRPV1 concatemers (Rattus norvegicus, UniProt O35433); type: cell-based
T6 construct: expressed in transfected cells; host or cells: TSA201 (HEK293T) cells, transient transfection

[11] = tested on: Y511A mutant subunit of rat TRPV1 (YYYA and YYAA concatemers); type: cell-based
Y512A mutant mouse TRPV1 [12] = biological target: T4, Y512A mutant mouse TRPV1; conditions: cited from earlier work
[13] = biological target: T7, Y511A (A) mutant subunit of rat TRPV1 concatemers (Rattus norvegicus, UniProt O35433, Y511A); type: cell-based
T7 construct: expressed in transfected cells; host or cells: TSA201 (HEK293T) cells, transient transfection
T7 sequence (O35433 whole entry Y511A): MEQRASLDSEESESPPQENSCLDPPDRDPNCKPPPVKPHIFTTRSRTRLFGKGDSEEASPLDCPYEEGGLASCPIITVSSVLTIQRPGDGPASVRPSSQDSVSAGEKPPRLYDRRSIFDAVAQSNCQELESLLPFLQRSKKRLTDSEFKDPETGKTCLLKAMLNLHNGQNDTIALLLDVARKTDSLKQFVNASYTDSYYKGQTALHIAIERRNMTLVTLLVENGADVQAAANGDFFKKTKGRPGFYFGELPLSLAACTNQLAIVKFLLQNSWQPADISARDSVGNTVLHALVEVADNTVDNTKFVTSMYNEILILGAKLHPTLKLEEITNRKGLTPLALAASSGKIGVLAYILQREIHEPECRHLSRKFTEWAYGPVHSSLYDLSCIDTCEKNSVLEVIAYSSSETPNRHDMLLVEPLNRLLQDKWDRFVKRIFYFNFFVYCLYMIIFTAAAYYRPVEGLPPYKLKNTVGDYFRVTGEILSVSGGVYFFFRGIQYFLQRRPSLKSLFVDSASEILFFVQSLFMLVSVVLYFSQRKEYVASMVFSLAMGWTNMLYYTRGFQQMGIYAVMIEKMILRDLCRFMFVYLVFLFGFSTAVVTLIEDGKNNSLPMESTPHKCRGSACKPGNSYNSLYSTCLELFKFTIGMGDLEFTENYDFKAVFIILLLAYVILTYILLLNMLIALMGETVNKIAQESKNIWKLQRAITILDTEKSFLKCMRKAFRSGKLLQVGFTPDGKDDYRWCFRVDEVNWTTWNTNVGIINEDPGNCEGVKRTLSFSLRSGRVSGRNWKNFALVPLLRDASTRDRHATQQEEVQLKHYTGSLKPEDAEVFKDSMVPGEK

T5 sequence (Q704Y3 whole entry): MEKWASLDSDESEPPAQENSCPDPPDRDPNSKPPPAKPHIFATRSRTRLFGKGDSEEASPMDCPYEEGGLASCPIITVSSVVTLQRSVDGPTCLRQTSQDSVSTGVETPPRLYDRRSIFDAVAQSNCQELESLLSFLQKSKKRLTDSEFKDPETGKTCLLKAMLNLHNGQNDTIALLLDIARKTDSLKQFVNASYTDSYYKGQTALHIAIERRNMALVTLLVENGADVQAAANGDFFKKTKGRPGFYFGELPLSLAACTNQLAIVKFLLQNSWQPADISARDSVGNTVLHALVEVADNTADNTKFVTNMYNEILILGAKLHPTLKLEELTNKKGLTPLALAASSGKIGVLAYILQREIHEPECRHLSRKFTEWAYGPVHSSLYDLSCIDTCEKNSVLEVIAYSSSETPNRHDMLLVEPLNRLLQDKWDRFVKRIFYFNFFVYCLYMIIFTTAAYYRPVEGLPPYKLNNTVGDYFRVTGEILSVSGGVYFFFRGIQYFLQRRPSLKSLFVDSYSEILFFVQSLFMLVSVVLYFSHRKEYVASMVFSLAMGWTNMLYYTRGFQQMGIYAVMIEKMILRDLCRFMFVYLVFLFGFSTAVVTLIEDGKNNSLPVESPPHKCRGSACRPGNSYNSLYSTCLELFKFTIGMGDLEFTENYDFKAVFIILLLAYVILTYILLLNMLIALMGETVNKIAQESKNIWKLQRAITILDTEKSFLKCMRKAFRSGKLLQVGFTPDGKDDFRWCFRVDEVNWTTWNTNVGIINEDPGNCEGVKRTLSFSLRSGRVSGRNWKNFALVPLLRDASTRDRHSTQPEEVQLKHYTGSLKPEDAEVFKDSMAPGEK
T2 sequence (O35433 whole entry Y511A): as the sequence (O35433 whole entry Y511A) above
T2 sequence (O35433 whole entry partner): as the sequence (O35433 whole entry Y511A) above, with A511Y counted along it
T3 sequence (O35433 whole entry, stated change not applied): as the sequence (O35433 whole entry Y511A) above, with A511Y counted along it
T3 sequence (O35433 whole entry, stated change not applied): as the sequence (O35433 whole entry Y511A) above, with A511Y counted along it
T3 sequence (O35433 whole entry Y511A): as the sequence (O35433 whole entry Y511A) above
T3 sequence (O35433 whole entry Y511A): as above
T1 sequence (O35433 whole entry, stated change not applied): as the sequence (O35433 whole entry Y511A) above, with A511Y counted along it
T1 sequence (O35433 whole entry, stated change not applied): as the sequence (O35433 whole entry Y511A) above, with A511Y counted along it
T1 sequence (O35433 whole entry, stated change not applied): as the sequence (O35433 whole entry Y511A) above, with A511Y counted along it
T1 sequence (O35433 whole entry Y511A): as the sequence (O35433 whole entry Y511A) above
T4 sequence (Q704Y3 whole entry Y512A): as the sequence (Q704Y3 whole entry) above, with Y512A counted along it
TRPV1 (Rattus norvegicus, UniProt O35433, Y511A), sequence (O35433 whole entry Y511A): as the sequence (O35433 whole entry Y511A) above
TRPV1 (Rattus norvegicus, UniProt O35433), sequence (O35433 whole entry): as the sequence (O35433 whole entry Y511A) above, with A511Y counted along it
T6 sequence (O35433 whole entry): as the sequence (O35433 whole entry Y511A) above, with A511Y counted along it

Question: Which results are given for 6′-iodo-RTX [6′-iRTX]?
Answer: agonist type (TRPV1 [1]): weak partial agonist; channel activation with three molecules bound [2]: barely activated; L [3]: 0.01; L with three prebound 6′-iRTX [3]: 0.02; L with two prebound 6′-iRTX [3]: 0.02; L2, equilibrium constant before capsaicin [4]: 0.01; L2, equilibrium constant before capsaicin application [4]: 0.008; binding reversibility (Y512A mutant mouse TRPV1 [5]): could be washed off; agonist type (TRPV1 [6]): weak agonist; binding reversibility (wildtype mouse TRPV1): binds irreversibly; channel activity produced on perfusion (wildtype mouse TRPV1): weak channel activities

Question: With NCCOB(c1ccccc1)c1ccccc1 [2-APB, 2-aminoethoxydiphenyl borate] as the compound, how does the “activation after perfusing 6′-iRTX” value (wildtype mouse TRPV1) read?
Answer: could still activate these channels

Question: For C=C(C)[C@]12C[C@@H](C)[C@@]34O[C@](Cc5ccccc5)(O[C@@H]1[C@@H]3C=C(COC(=O)Cc1ccc(O)c(OC)c1)C[C@]1(O)C(=O)C(C)=C[C@@H]41)O2 [RTX, resiniferatoxin], which “Po with three RTX molecules bound” value [7] is on record?
Answer: approximately 99%

Question: What about the binding reversibility (TRPV1 [8]) of the same compound?
Answer: can be washed off

Question: And the binding reversibility (TRPV1 [9])?
Answer: binds irreversibly

Question: What about the L [3] of the same compound?
Answer: 0.96

Question: And the “L with two prebound RTX” value [3]?
Answer: 0.94

Question: And the “L2, equilibrium constant before capsaicin” value [4]?
Answer: 0.97

Question: What about the “L2, equilibrium constant before capsaicin application” value [4] of the same compound?
Answer: 0.96

Question: What about the “initial Po level with wildtype binding sites preloaded” value [4] of the same compound?
Answer: approximately 50%

Question: What about the agonist type (TRPV1 [6]) of the same compound?
Answer: full agonist

Question: Which results are given for COc1cc(CNC(=O)CCCC/C=C/C(C)C)ccc1O [capsaicin]?
Answer: Hill slope [2]: 0.96; KY [10]: 2.4e+06 M⁻¹; capsaicin association constant K [11]: 49000 M⁻¹; cooperative factor f [11]: 8.0; cooperative factor f [3]: 12.1 and 8.9; Hill slope [4]: 0.88; Po reached on application of capsaicin [4]: ~100%; a factor (cooperativity between the two capsaicin binding steps; 0.25 = independent) [4]: 0.27; cooperative factor f [4]: 8.9 and 11.8; EC50 (Y512A mutant mouse TRPV1 [5]): 22 µM; Kd (Y512A mutant mouse TRPV1 [5]): 52.6 µM; slope factor (Hill function) (Y512A mutant mouse TRPV1 [5]): 2.3; EC50 (Y512A mutant mouse TRPV1 [12]): 13 µM; EC50 (wildtype mouse TRPV1): 0.11 µM; Kd (wildtype mouse TRPV1): 0.244 µM; activation after perfusing 6′-iRTX (wildtype mouse TRPV1): lost its activation effect; slope factor (Hill function) (wildtype mouse TRPV1): 1.3; fA [13]: 12.9
